These are literature values, as cited in publication PMC4027949 (ACS Chemical Biology, 2014).

Each structure is given as a SMILES string.

The target in one data set is PDGFRa (Homo sapiens, UniProt P16234). Particulars: read-out: IC50 PDGFRa; Ibrutinib comparison values.
Another data set has as its system PI3K. To be noted: read-out: IC50 PI3K; Ibrutinib comparison values.
The next data set relates to P38. To be noted: read-out: IC50 P38; Ibrutinib comparison values.

Sequence of PDGFRa (P16234 24-1089, species assumed): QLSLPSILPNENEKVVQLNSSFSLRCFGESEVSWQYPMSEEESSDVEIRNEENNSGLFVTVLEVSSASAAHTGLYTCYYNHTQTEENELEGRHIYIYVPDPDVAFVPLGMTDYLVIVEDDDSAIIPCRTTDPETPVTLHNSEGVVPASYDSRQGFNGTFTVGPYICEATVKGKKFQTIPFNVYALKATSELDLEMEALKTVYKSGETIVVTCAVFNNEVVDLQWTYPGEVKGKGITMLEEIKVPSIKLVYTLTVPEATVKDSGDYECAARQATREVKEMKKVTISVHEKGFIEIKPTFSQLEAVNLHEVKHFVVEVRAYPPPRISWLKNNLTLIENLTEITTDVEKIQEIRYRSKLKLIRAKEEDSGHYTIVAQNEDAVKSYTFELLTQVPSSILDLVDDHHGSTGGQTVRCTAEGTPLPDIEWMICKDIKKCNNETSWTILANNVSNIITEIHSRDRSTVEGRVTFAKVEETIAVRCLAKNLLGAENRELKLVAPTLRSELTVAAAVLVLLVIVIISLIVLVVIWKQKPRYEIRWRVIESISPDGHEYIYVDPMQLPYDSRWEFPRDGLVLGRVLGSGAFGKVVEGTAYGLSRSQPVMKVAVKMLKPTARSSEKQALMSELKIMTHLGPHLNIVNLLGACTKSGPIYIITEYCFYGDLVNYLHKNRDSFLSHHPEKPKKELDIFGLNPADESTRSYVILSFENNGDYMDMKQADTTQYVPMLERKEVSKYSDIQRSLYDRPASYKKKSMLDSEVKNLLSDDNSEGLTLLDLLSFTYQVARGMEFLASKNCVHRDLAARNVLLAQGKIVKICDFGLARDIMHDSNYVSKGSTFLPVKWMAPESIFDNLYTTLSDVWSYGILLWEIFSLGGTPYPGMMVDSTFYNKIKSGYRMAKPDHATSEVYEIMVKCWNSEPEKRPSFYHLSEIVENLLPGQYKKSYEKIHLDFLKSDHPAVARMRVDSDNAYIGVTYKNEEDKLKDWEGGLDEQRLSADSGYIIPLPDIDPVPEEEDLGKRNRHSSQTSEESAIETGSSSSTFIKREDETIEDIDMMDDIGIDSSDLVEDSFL

For the compound `C=CC(=O)N1CCC[C@@H](n2nc(-c3ccc(Oc4ccccc4)cc3)c3c(N)ncnc32)C1` [Ibrutinib], the IC50 at PDGFRa is 718 nM; in the data set on PI3K, over 10 µM; in the data set with P38, over 10 µM.
